US12023333B2, “Phenyl-sulfamoyl.benzoyc acids as ERAP1 modulators” (GREY WOLF THERAPEUTICS LIMITED, priority 2019, dated 2024)

target: T1, Purified ERAP1(37-941)-10His (ERAP1) (Homo sapiens, UniProt Q9NZ08); test: ERAP1 mediated hydrolysis of an amide substrate measured in a biochemical system (10-mer decapeptide substrate); details: 10-mer substrate, 23° C. for 1 h, excitation 279 nm and emission 355 nm; read-out: IC50 vs Decapeptide WRVYEKC(Dnp)ALK-acid (where Dnp is Dinitrophenyl maleimide) (10-mer)
T1 construct: Purified ERAP1(37-941)-10His (ERAP1); 10His (C)
How it was run: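 ERAP1(37-941)-10His preincubated with compound in 25 mM Bis-tris propane, 0.05% HPMC, pH 7.75, then reacted 1 h at 23 °C with 10-mer WRVYEKC(Dnp)ALK (100 μM solution added in equal volume). Fluorescence read at ex 279/em 355 nm; IC50 from 4-parameter fit.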

T1 sequence (Q9NZ08 37-941): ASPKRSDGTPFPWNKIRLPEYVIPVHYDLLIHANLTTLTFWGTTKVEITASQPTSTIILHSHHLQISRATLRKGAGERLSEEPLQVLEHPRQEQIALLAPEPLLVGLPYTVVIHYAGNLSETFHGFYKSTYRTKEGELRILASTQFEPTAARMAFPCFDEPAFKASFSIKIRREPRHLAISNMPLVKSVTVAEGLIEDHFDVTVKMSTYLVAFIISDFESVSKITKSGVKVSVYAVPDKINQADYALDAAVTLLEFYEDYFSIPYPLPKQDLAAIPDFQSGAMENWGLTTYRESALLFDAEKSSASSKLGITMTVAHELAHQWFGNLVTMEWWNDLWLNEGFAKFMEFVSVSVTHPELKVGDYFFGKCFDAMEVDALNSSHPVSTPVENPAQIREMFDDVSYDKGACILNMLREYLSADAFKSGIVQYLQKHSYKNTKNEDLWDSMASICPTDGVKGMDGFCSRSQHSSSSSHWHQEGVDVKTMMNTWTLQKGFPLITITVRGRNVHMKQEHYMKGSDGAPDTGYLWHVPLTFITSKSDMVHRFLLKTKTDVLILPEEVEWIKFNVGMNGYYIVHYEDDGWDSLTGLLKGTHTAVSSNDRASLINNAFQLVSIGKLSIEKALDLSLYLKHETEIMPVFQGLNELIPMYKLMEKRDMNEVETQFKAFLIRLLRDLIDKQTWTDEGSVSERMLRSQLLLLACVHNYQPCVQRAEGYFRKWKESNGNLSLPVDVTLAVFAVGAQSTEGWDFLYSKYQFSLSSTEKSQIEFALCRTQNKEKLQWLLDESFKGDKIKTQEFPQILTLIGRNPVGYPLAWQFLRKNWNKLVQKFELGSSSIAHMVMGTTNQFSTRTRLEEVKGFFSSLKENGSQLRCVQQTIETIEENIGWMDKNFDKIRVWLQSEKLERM

IC50, < 0.5 µM:
O=C(O)c1ccc(C2CC2)c(S(=O)(=O)Nc2cc(C(F)(F)F)ccc2-c2ccc(F)s2)c1 [Example 122, 4-cyclopropyl-3-(N-(2-(5-fluorothiophen-2-yl)-5-(trifluoromethyl)phenyl)sulfamoyl)benzoic acid]
CS(=O)(=O)c1ccc(-c2ccc(Cl)s2)c(NS(=O)(=O)c2cc(C(=O)O)ccc2C2CC2)c1 [Example 123, 3-(N-(2-(5-chlorothiophen-2-yl)-5-(methylsulfonyl)phenyl)sulfamoyl)-4-cyclopropylbenzoic acid]
CS(=O)(=O)c1ccc(-c2ccc(C#N)s2)c(NS(=O)(=O)c2cc(C(=O)O)ccc2C2CC2)c1 [Example 124, 3-(N-(2-(5-cyanothiophen-2-yl)-5-(methylsulfonyl)phenyl)sulfamoyl)-4-cyclopropylbenzoic acid]
COc1ccc(C(=O)O)cc1S(=O)(=O)Nc1cc(C(F)(F)F)ccc1-c1ccc(C#N)s1 [Example 125, 3-(N-(2-(5-cyanothiophen-2-yl)-5-(trifluoromethyl)phenyl)sulfamoyl)-4-methoxybenzoic acid]
N#Cc1ccc(-c2ccc(C#N)s2)c(NS(=O)(=O)c2cc(C(=O)O)ccc2C2CC2)c1 [Example 126, 3-(N-(5-cyano-2-(5-cyanothiophen-2-yl)phenyl)sulfamoyl)-4-cyclopropylbenzoic acid]
N#Cc1ccc(-c2ccc(C(F)(F)F)cc2NS(=O)(=O)c2cc(C(=O)O)ccc2C2CC2)s1 [Example 127, 3-(N-(2-(5-cyanothiophen-2-yl)-5-(trifluoromethyl)phenyl)sulfamoyl)-4-cyclopropylbenzoic acid]
CCc1ccc(C(=O)O)cc1S(=O)(=O)Nc1cc(C(F)(F)F)ccc1-c1nccs1 [Example 128, 4-ethyl-3-(N-(2-(thiazol-2-yl)-5-(trifluoromethyl)phenyl)sulfamoyl)benzoic acid]
CCc1ccc(C(=O)O)cc1S(=O)(=O)Nc1cc(C(F)(F)F)ccc1-c1cncs1 [Example 129, 4-ethyl-3-(N-(2-(thiazol-5-yl)-5-(trifluoromethyl)phenyl)sulfamoyl)benzoic acid]
CCc1ccc(C(=O)O)cc1S(=O)(=O)Nc1cc(C(F)(F)F)c(F)cc1-n1cccc1 [Example 130, 4-ethyl-3-(N-(4-fluoro-2-(pyrrol-1-yl)-5-(trifluoromethyl)phenyl)sulfamoyl)benzoic acid]
CCc1ccc(C(=O)O)cc1S(=O)(=O)Nc1cc(C(F)(F)F)c(Cl)cc1-n1cccc1 [Example 131, 3-(N-(4-chloro-2-(pyrrol-1-yl)-5-(trifluoromethyl)phenyl)sulfamoyl)-4-ethylbenzoic acid]
N#Cc1cc(NS(=O)(=O)c2cc(C(=O)O)ccc2C2CC2)c(-c2ccccn2)cc1Cl [Example 132, 3-(N-(4-chloro-5-cyano-2-(pyridin-2-yl)phenyl)sulfamoyl)-4-cyclopropylbenzoic acid]
N#Cc1cc(NS(=O)(=O)c2cc(C(=O)O)ccc2C2CC2)c(-c2cccc(F)c2)cc1Cl [Example 133, 3-(N-(5-chloro-4-cyano-3′-fluoro-[1,1′-biphenyl]-2-yl)sulfamoyl)-4-cyclopropylbenzoic acid]
N#Cc1cc(NS(=O)(=O)c2cc(C(=O)O)ccc2C2CC2)c(-c2ccc(Cl)s2)cc1Cl [Example 134, 3-(N-(4-chloro-2-(5-chlorothiophen-2-yl)-5-cyanophenyl)sulfamoyl)-4-cyclopropylbenzoic acid]
O=C(O)c1ccc(C2CC2)c(S(=O)(=O)Nc2cc(-c3ccns3)ccc2-c2ccccc2)c1 [Example 135, 4-cyclopropyl-3-(N-(4-(isothiazol-5-yl)-[1,1′-biphenyl]-2-yl)sulfamoyl)benzoic acid]
Cc1sncc1-c1ccc(-c2cccc(F)c2)c(NS(=O)(=O)c2cc(C(=O)O)ccc2C2CC2)c1 [Example 136, 4-cyclopropyl-3-(N-(3′-fluoro-4-(5-methylisothiazol-4-yl)-[1,1′-biphenyl]-2-yl)sulfamoyl)benzoic acid]
O=C(O)c1ccc(C2CC2)c(S(=O)(=O)Nc2cc(-c3ccns3)ccc2-c2cccc(F)c2)c1 [Example 137, 4-cyclopropyl-3-(N-(3′-fluoro-4-(isothiazol-5-yl)-[1,1′-biphenyl]-2-yl)sulfamoyl)benzoic acid]
Cc1sncc1-c1ccc(-c2cccnc2)c(NS(=O)(=O)c2cc(C(=O)O)ccc2C2CC2)c1 [Example 138, 4-cyclopropyl-3-(N-(5-(5-methylisothiazol-4-yl)-2-(pyridin-3-yl)phenyl)sulfamoyl)benzoic acid]
O=C(O)c1ccc(C2CC2)c(S(=O)(=O)Nc2cc(-c3ccns3)ccc2-c2ccccn2)c1 [Example 139, 4-cyclopropyl-3-(N-(5-(isothiazol-5-yl)-2-(pyridin-2-yl)phenyl)sulfamoyl)benzoic acid]
Cc1ccc(-c2ccc(-c3cnsc3C)cc2NS(=O)(=O)c2cc(C(=O)O)ccc2C2CC2)s1 [Example 140, 4-cyclopropyl-3-(N-(5-(5-methylisothiazol-4-yl)-2-(5-methylthiophen-2-yl)phenyl)sulfamoyl)benzoic acid]
O=C(O)c1ccc(C2CC2)c(S(=O)(=O)Nc2cc(-c3ccns3)ccc2-c2ccc(Cl)s2)c1 [Example 141, 3-(N-(2-(5-chlorothiophen-2-yl)-5-(isothiazol-5-yl)phenyl)sulfamoyl)-4-cyclopropylbenzoic acid]
Cc1sncc1-c1ccc(-c2ccc(F)s2)c(NS(=O)(=O)c2cc(C(=O)O)ccc2C2CC2)c1 [Example 142, 4-cyclopropyl-3-(N-(2-(5-fluorothiophen-2-yl)-5-(5-methylisothiazol-4-yl)phenyl)sulfamoyl)benzoic acid]
O=C(O)c1ccc(C2CC2)c(S(=O)(=O)Nc2cc(-c3ccns3)ccc2-n2cccc2)c1 [Example 143, 4-cyclopropyl-3-(N-(5-(isothiazol-5-yl)-2-(pyrrol-1-yl)phenyl)sulfamoyl)benzoic acid]
Cc1sncc1-c1ccc(-c2ccccn2)c(NS(=O)(=O)c2cc(C(=O)O)ccc2C2CC2)c1 [Example 144, 4-cyclopropyl-3-(N-(5-(5-methylisothiazol-4-yl)-2-(pyridin-2-yl)phenyl)sulfamoyl)benzoic acid]
O=C(O)c1ccc(C2CC2)c(S(=O)(=O)Nc2cc(-c3cn[nH]c3)ccc2-c2ccccn2)c1 [Example 145]
O=C(O)c1ccc(C2CC2)c(S(=O)(=O)Nc2cc(-c3ccns3)ccc2-c2cccs2)c1 [Example 146, 4-cyclopropyl-3-(N-(5-(isothiazol-5-yl)-2-(thiophen-2-yl)phenyl)sulfamoyl)benzoic acid]
O=C(O)c1ccc(C2CC2)c(S(=O)(=O)Nc2cc(-c3ccns3)ccc2-c2ccc(F)s2)c1 [Example 147, 4-cyclopropyl-3-(N-(2-(5-fluorothiophen-2-yl)-5-(isothiazol-5-yl)phenyl)sulfamoyl)benzoic acid]
Cc1sncc1-c1ccc(-c2ccccc2)c(NS(=O)(=O)c2cc(C(=O)O)ccc2C2CC2)c1 [Example 148, 4-cyclopropyl-3-(N-(4-(5-methylisothiazol-4-yl)-[1,1′-biphenyl]-2-yl)sulfamoyl)benzoic acid]
Cc1sncc1-c1ccc(-c2ccc(Cl)s2)c(NS(=O)(=O)c2cc(C(=O)O)ccc2C2CC2)c1 [Example 149, 3-(N-(2-(5-chlorothiophen-2-yl)-5-(5-methylisothiazol-4-yl)phenyl)sulfamoyl)-4-cyclopropylbenzoic acid]
Cc1sncc1-c1ccc(-n2cccc2)c(NS(=O)(=O)c2cc(C(=O)O)ccc2C2CC2)c1 [Example 150, 4-cyclopropyl-3-(N-(5-(5-methylisothiazol-4-yl)-2-(pyrrol-1-yl)phenyl)sulfamoyl)benzoic acid]
O=C(O)c1ccc(C2CC2)c(S(=O)(=O)Nc2cc(C(F)(F)F)ccc2-c2ccsn2)c1 [Example 151, 4-cyclopropyl-3-(N-(2-(isothiazol-3-yl)-5-(trifluoromethyl)phenyl)sulfamoyl)benzoic acid]
N#Cc1ccc(-c2ncccc2F)c(NS(=O)(=O)c2cc(C(=O)O)ccc2C2CC2)c1 [Example 152, 3-(N-(5-cyano-2-(3-fluoropyridin-2-yl)phenyl)sulfamoyl)-4-cyclopropylbenzoic acid]
N#Cc1ccc(-c2cccc(F)n2)c(NS(=O)(=O)c2cc(C(=O)O)ccc2C2CC2)c1 [Example 153, 3-(N-(5-cyano-2-(6-fluoropyridin-2-yl)phenyl)sulfamoyl)-4-cyclopropylbenzoic acid]
N#Cc1cc(NS(=O)(=O)c2cc(C(=O)O)ccc2C2CC2)c(-c2ccccn2)cc1F [Example 154, 3-(N-(5-cyano-4-fluoro-2-(pyridin-2-yl)phenyl)sulfamoyl)-4-cyclopropylbenzoic acid]
O=C(O)c1ccc(C2CC2)c(S(=O)(=O)Nc2cc(C(F)(F)F)c(F)cc2-n2cccc2)c1 [Example 155, 4-cyclopropyl-3-(N-(4-fluoro-2-(pyrrol-1-yl)-5-(trifluoromethyl)phenyl)sulfamoyl)benzoic acid]
